Among the test systems are A498; ACHN; CCRF-CEM; HCT-15; Hs-578T; IGROV-1; K562; KM12; LOX IMVI; MDA-N; NCI-H460; OVCAR-4; SF-268; SF-295; SK-OV-3; SNB-19; SNB-75; T47D; U-251; UACC-257.
Holding throughout (test): NCI tumour cell line growth inhibition, 48 h

The source of these data is ChEMBL document CHEMBL1201862, “PubChem BioAssay data set” (2004).

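48-hour exposure; five concentrations; linearly interpolated endpoints. GI50 = concentration required for 50% inhibition of growth.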 Active and inactive are the calls of the source. Rule as the data show it: active = GI50 up to about 1.1 µM and inactive = higher.

In the case of `Cc1cc(O)c2c(c1)C(=O)C=C(Br)C2=O`, the GI50 in the experiment with A498 was 18.9 µM (inactive); in the experiment with ACHN, 15.6 µM (inactive); in the experiment with CCRF-CEM it was 0.255 µM (active); in the experiment with HCT-15, 10.2 µM; in the experiment with Hs-578T it was 13 µM (inactive); in the experiment on IGROV-1, > 43.7 µM (inactive). The GI50 in the experiment with K562 is 0.807 µM (active); in the experiment on KM12, 27.2 µM (inactive); in the experiment with LOX IMVI, 12.8 µM (inactive); in the experiment on MDA-N, 15.3 µM (inactive); in the experiment with NCI-H460 it was 19.9 µM (inactive); in the experiment on OVCAR-4, 11.8 µM (inactive). Further, the GI50 is 30.5 µM (inactive) with SF-268; 36 µM (inactive) with SF-295; > 100 µM (inactive) in the experiment with SK-OV-3; > 65.8 µM (inactive) with SNB-19; 16.8 µM (inactive) in the experiment with SNB-75; 5.68 µM (inactive) in the experiment with T47D. The GI50 in the experiment with U-251 was 29.7 µM (inactive); in the experiment on UACC-257, 13.1 µM (inactive).
